# Where two headings read alike, the source gives them in different places.
# T1: DOG1 (Saccharomyces cerevisiae, UniProt P38774)
# T1 construct: expressed in transfected cells; host or cells: S. cerevisiae H1104 (W303-1B) transformed with plasmid B1020 (YEplac195, ADH1 promoter-DOG1-ADH1 terminator) = strain H1514; crude cell extract
# T1 sequence (P38774 1-246): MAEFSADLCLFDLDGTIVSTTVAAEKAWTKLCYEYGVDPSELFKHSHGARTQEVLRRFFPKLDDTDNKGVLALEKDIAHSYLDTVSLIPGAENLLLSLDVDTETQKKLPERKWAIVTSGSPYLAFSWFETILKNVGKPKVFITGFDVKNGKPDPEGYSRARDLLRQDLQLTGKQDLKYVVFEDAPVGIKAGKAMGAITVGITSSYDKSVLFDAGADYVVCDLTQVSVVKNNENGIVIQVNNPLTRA
# Legend:
# [1] = system: TKL1,2 deficient strain harboring the XDH encoding gene from P. stipitis on a multi-copy plasmid (H1057); conditions: for Polyols from glucose consumed in %: 25 μM IA
# Procedure: TKL1,2 deficient strain H1055 carrying the pAOS67 multi-copy plasmid harboring the XDH encoding gene from P. stipitis (H1057) was cultivated in the presence of 25 μM IA (Fluka Chemie AG, Switzerland). The growth medium was SCD lacking histidine for plasmid selection and 7.65 g/l KNO3. Samples were withdrawn at the indicated time points, the OD600 measured, cells removed by centrifugation, and the growth medium samples were assayed for polyols by the Boehringer Mannheim D-sorbitol/xylitol kit and for glucose by the Boehringer Mannheim GOD-Perid kit.
# DOG1 = target: T1, DOG1; experiment: Specificity of DOG1 towards sugar phosphates in yeast cell extracts (phosphate release); assay type: biochemical, S. cerevisiae; conditions: 20 mM substrate; cell extract of H1514; relative to 2-deoxyglucose-6-P as 100%
# Procedure: The specificity of DOG1 towards xylulose-5-P, ribulose-5-P, ribose-5-P and 2-deoxyglucose-6-P was determined using 20 mM substrate concentrations. Yeast cell extracts were prepared as described in example 15, except that 50 mM imidazole-HCl, 10 mM MgCl2 buffer, pH 6.0 was used. 10 μl of extract and 210 μl of substrate (20 mM) in the same buffer was incubated for 30 min, 30° C. The reaction was stopped with final 2% of TCA and the phosphate released was measured using ammonium molybdate (15 mM), zinc acetate (100 mM), pH 5.0 as the reagent. The formation of molybdenum blue was measured at 350 nm, and quantified by phosphate standards (Sanz, P. et al., Yeast 10:1195–1202 (1994); Bencini, D. A. et al., Anal. Biochem. 132:254–258 (1983)).
# [2] = Stereospecificity of D-xylulose 5-phosphate reduction, products dephosphorylated and analyzed by HPLC; assay type: biochemical; conditions: 10 mM xylulose 5-phosphate, 10 mM NADH, pH 7.0, 37° C.
# Procedure: The stereospecificity of xylulose-phosphate reduction by the B. halodurans XPDH was verified by the following procedure. The reaction between D-xylulose 5-phosphate and NADH was conducted at 37° C. for several hours under the following conditions: 100 mM Tris-HC buffer, pH 7.0, 10 mM xylulose 5-phosphate, 10 mM NADH, […] the enzyme lysate. The reaction products were dephosphorylated with alkaline phosphatase and analyzed by HPLC. […] It should be noted that among the highest-scoring four homologues of the L. rhamnosus XPDH, the enzyme from B. holodurans is the least homologous. This can be interpreted as an indication that the other three homologues (SEQ ID NO:51, 52 and 53) are most probably also xylitol-phosphate dehydrogenases.
# The stereospecificity of D-xylulose 5-phosphate reduction by the E. avium arabitol-phosphate dehydrogenase was verified by the following procedure. The reaction between D-xylulose 5-phosphate and NADH was conducted at 37° C. for several hours under the following conditions: 100 mM Tris-HCl buffer, pH 7.0, 10 mM xylulose 5-phosphate, 10 mM NADH, 1U of the enzyme. The reaction products were dephosphorylated with alkaline phosphatase and analyzed by HPLC. […] There are no other arabitol-phosphate dehydrogenases described in the art.
# Both arabitol-phosphate dehydrogenase genes were expressed using the same tools and methods as those used for the expression of xylitol-phosphate dehydrogenases (Example 26). Briefly, the coding regions of the two arabitol-phosphate dehydrogenase genes were amplified using the chromosomal DNA of the microorganism from which the enzyme was isolated and the appropriate PCR primers. In the case of E. avium the primers were oAPDH 51 […] SEQ ID NO: 71) and the anti-sense primer oAPDH 31 […]) SEQ ID NO: 72. For B. halodurans, the sense primer was oBHDH 5 ([…], SEQ ID NO: 73) and the anti-sense primer was oBHDH 3 ([…], SEQ ID NO: 74). […] The stereospecificity of D-xylulose 5-phosphate reduction by the previously unknown enzyme from B. halodurans was determined as described in Example 30.
# [3] = Xylulose 5-phosphate reductase (XPDH/APDH) activity assay with NADH; assay type: biochemical; conditions: cell extract of transformed B. subtilis BD170; xylulose 5-phosphate usually 5 mM
# Procedure: The strain BD 170 [pGTK24(MXD2)] as well as untransformed strain BD 170 was grown overnight on either LB or LB, containing 10% glucose, cell extracts were prepared and the XDH activity measured. The assay conditions for measuring XDH activity were: 30° C., 50 mM Tris-HCI, pH 7.0, 0.2 mM NADH and 10 mM D-xylulose. Changes of absorption at 340 nm were recorded; one unit of activity was defined as the amount of enzyme that catalyzed the reduction of one […] of substrate per minute under the conditions of assay (assuming the differential absorption coefficient NADH/NAD^+ to be equal to […]). The following levels of XDH activity were measured in the strain BD170 [pGTK24(MXD2)] grown on the two media: LB—0.5 U/mgproteins, LB-glucose 0.05–0.15 U/mgprotein. Thus, glucose appeared to repress the activity of the aldolase promoter 3–10 fold. No XDH activity could be detected in the strain BD170 grown on either of the two media.
# B. subtilis strain BD170 was transformed with pGTK74(LRXPDH) and pGTK74(BHDH2). The transformants were grown overnight in LB containing 25 mg/liter kanamycin, cell extract were prepared by sonication and the activity of XPDH activity was measured. The conditions for measuring the XPDH activity were similar to those used for measuring the xylitol dehydrogenase activity except that xylulose 5-phosphate was used as the substrate (usually at 5 mM concentration) instead of xylulose. The activities were approximately 0.3 U/mg protein for the XPDH from L. rhamnosus and about 0.5 U/mg protein for B. halodurans enzyme.
# Enterococcus avium ATCC 35655 was cultivated at 30° C. in 5 liters of a medium containing: peptone—10 g/l, yeast extract—5 g/l, beef extract 10 g/l, K2HPO4 2 g/l, NaCl—5 g/l, MgSO4—0.02 g/l, MnCl2—0.05 g/l, ammonium citrate 2 g/l, Tween 20—1.1 ml/l, xylitol—20g/l, pH 6.5. […]
molecule,measurement,setting,value
"O=C(O)CI [iodacetate, iodoacetate]",Polyols from glucose consumed in %,[1]; 28 h,0.45%
same,Polyols from glucose consumed in %,[1]; 45 h,0.74%
same,Polyols from glucose consumed in %,[1]; 52 h,0.57%
same,Polyols from glucose consumed in %,[1]; 69 h,0.72%
same,Polyols from glucose consumed in %,[1]; 77 h,0.87%
same,Polyols from glucose consumed in %,[1]; 93 h,0.93%
same,Polyols from glucose consumed in %,[1]; 100 h,1.13%
same,glucose consumed metabolised to polyols (xylitol+part of ribitol),[1]; in the presence of iodoacetate,1.2%
same,increase in polyol production,[1]; in the presence of iodoacetate vs without,about 30%
"O=C(CO)[C@@H](O)[C@H](O)COP(=O)(O)O [xylulose-5-P, Xylulose-5-phosphate]",Relative activity (20 mM),DOG1,15%
"enzyme from B. halodurans: D-arabitol-phosphate dehydrogenase from B. halodurans, SEQ ID NO:70, expressed from pGTK74(BHDH) (protein, Bacillus halodurans (deduced sequence)) MKALVKTQHGTGHFAVQEKPEPTPGKHQVKIKVKYTGVCGSDIHTYEGHYPVAAPVTLGHEFSGEIVELGEGVTGFNVGDRVTSETTYSICGKCSYCTSGDYNLCSHRKGLGNQQDGSFAKYVIARQESLHHLPAGVDDRSAAMTEPLACTHHAIAKTSINKGDLVVVTGPGPIGLLAAQVAKSHGGTVIITGLSNDQVRLKKAKEVGIDYAIDTQEVDIKELVSELTDGYGADVVLECSGAVPAAKQGIDLLRKKGQYAQVGLFAQPEIQFNFEKIIQKEISVVGSRSQKPADWEPALSLLNEKKVNAKTLVTHEYTISEWDKAYHAIKSGEAIKVLLTPID",products found in the reaction mixture / stereospecificity,[2],this enzyme is indeed a D-arabitol-phosphate dehydrogenase
"B. halodurans enzyme: xylitol-phosphate dehydrogenase from B. halodurans, SEQ ID NO:50, expressed from pGTK74(BHDH2) (protein, Bacillus halodurans) MKALNLYGIQDLRFEETPAPSIEHDDDIIIKVKAVGICGSDLSRYKKLGPYVPGMTFGHEFAGEVVKIGRSVTGFSIGDRVAACPTYTCGQCRYCQLGEPTRCERLSVIGARHPGAYAEYVKLPAKHVIPLPNVVNYDEAALIEPASVVAHGFYRTNIKPGASVAIMGVGSIGLLAVQWAKIFGATTVFAIDIDEQKLNVANQLGADVLISSLQRPAHKQILEYTNGIGVDVAVESAGTPSTSAQVFALPKKGGEVVFLGIPYADVQIERFYFEKIVRNELHVYGSWNALSSPFPGKEWATTIHYMSSGQLNVAPMISYRLPLAKGPETFQQIAKGELKPTKVLFYPEKLSERK",XPDH activity,[3],about 0.5 U/mg protein
same,products found in the reaction mixture / stereospecificity,[2],Only xylitol and xylulose (corresponding to the unreacted xylulose 5-phosphate) but no arabitol were found
"XPDH from L. rhamnosus: xylitol-phosphate dehydrogenase from Lactobacillus rhamnosus, SEQ ID NO:49 (protein, listed as Lactobacillus rhamnosus) MKASMLEDLNKFSVKEIDIPSPKKDEVVVKVMAAGTCGSDSHKMISGWKYGYPAVMGHEFSGIVTQLGENVSNVSVGQHVAVAPFIPCFKCHYCQIGLFQMCENYSMLGQQKFGGFEQYVSVPARNVLDIGKMSFEEGALIEPMAVAAHAVMGIKPELGDTVAVFGLGTVGDLVVRLLISSGATNVIGIDIDDQKLEKGLDEGCTHVINSAKESLEEKIMEYTDGLGVDISMECAGSKITEEQTLLVTKRRGKVGFVGIAYSDVLLHQKAFENIFRHELTVTGFWNSYSAPFPGREWTNSIQLVNRGRIKIKDLITHRFELEDMQKAFNMITTRSESFNKVMFFPNGIN",XPDH activity,[3],approximately 0.3 U/mg protein

# Source: patent US7226761B2, “Manufacture of five-carbon sugars and sugar alcohols” (Danisco Sweeteners Oy, priority 1992, dated 2007)
